Test results taken from patent EP4745138A1, “THIO-GLUTARIMIDO ISOINDOLINONE DERIVATIVE, BIFUNCTIONAL PROTEIN DEGRADER CONTAINING SAME, AND USES THEREOF” (Gluetacs Therapeutics (Shanghai) Co., Ltd., priority 2023, dated 2025).
Where two headings read alike, the source gives them in different places.

Columns and labels:
[1] = target: T1, human Cereblon WT GST-tagged protein (Homo sapiens, UniProt Q96SW2); test: CRBN-binding affinity, HTRF (CEREBLON BINDING kit); settings: for inhibition at 0.5 µM: read-out: Inhibition Rate at 0.5 µM (%); for inhibition at 2 µM: read-out: Inhibition Rate at 2 µM (%)
T1 construct: purchased CISBIO 64BDCRBNPEH
T1 sequence (Q96SW2 whole entry): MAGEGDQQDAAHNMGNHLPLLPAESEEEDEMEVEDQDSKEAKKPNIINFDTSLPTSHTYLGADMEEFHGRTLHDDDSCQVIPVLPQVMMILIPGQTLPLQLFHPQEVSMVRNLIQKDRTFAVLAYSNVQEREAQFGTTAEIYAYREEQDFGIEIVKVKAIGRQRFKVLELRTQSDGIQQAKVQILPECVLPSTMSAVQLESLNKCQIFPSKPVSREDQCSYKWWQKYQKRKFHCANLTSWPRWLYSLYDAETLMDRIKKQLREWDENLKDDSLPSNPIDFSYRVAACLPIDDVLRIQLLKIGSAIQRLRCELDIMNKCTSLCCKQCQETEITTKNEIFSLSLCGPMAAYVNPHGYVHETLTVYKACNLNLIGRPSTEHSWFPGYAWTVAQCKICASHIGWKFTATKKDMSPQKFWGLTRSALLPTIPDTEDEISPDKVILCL
Method in brief: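 HTRF competition against a thalidomide-red probe using GST-tagged Cereblon and Eu-labelled anti-GST antibody. Test concentrations (final): 2 µM and 0.5 µM in diluent #9 (1X); blank controls lack compound and protein, containing PROTAC binding buffer.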

ALK = target: T2, ALK (Homo sapiens, UniProt Q96SW2+Q9HC35+Q9UM73); test: Western blot, target protein degradation in H2228 Cell; format: cell-based; settings: substrate protein remaining %, treated at 500 nM and 50 nM, 24 hours
T2 construct: endogenous in cells; host or cells: H2228
T2 sequence (Q9HC35+Q9UM73 fused): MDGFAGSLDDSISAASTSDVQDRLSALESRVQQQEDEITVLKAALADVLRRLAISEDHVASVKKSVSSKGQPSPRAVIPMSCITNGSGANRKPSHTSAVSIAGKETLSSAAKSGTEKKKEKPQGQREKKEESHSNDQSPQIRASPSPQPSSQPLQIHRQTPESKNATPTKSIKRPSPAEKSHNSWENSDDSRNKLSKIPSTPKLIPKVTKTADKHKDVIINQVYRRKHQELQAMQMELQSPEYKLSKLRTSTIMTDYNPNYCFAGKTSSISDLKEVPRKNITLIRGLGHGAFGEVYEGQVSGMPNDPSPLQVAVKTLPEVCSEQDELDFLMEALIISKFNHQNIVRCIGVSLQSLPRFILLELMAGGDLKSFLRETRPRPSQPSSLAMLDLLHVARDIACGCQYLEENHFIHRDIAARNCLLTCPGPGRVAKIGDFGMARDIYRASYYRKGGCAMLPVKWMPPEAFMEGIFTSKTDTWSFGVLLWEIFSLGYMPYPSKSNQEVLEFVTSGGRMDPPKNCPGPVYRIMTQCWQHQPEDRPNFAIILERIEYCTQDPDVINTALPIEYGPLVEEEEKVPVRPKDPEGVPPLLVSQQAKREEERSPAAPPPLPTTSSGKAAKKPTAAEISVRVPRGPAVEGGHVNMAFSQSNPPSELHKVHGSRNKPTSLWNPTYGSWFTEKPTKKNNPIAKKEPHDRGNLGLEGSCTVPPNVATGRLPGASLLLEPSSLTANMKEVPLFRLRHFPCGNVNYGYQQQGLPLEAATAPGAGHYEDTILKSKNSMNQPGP
T2 sequence (Q96SW2 whole entry): as the sequence (Q96SW2 whole entry) above
T2 sequence (Q16531 whole entry partner): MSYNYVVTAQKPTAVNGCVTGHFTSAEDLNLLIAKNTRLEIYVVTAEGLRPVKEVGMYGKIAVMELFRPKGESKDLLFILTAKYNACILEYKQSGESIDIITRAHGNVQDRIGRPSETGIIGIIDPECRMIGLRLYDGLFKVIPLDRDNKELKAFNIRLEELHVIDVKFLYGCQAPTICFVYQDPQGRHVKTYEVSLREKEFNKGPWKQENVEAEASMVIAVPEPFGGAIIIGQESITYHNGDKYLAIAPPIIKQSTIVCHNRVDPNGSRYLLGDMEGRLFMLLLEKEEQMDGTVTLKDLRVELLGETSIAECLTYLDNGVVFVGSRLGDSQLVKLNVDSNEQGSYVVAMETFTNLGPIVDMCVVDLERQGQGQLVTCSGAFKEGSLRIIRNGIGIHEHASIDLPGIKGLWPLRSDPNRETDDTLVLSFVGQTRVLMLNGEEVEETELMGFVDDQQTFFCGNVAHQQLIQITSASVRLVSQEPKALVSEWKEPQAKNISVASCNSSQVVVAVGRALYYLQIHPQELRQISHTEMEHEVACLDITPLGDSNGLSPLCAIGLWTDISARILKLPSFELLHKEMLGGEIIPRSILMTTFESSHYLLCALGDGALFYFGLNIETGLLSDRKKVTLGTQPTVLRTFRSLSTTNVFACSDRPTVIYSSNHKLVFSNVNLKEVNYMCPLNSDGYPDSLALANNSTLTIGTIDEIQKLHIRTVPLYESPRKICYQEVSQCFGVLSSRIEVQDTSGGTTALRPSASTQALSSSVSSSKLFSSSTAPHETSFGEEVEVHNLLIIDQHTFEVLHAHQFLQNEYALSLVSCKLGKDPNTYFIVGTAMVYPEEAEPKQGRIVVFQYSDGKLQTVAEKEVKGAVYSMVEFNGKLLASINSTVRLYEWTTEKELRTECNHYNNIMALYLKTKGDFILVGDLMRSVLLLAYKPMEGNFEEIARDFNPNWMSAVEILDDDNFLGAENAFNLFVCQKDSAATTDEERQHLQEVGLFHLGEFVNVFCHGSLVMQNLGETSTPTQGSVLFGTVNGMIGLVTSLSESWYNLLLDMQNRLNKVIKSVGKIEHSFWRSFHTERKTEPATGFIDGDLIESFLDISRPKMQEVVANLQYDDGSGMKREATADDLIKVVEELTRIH
Protocol: (§1) Conventional Western blot assay was performed to evaluate the effects of the compounds of the present disclosure on the expression of target proteins in cells.
(§2) (1) Cell Seeding and Protein Harvesting: The selected cells were processed according to the cell seeding procedure and protein harvesting procedure in Table II-2. Table II-2 Cell Seeding and Protein Harvesting Procedures
(§3) (2) To the collected supernatant, 5X SDS sample loading buffer was added, followed by denaturation at 95°C for 5 minutes. The denatured samples were then separated by SDS-PAGE electrophoresis on a polyacrylamide gel. Proteins were transferred to a nitrocellulose membrane (0.45 µm NC membrane), blocked with blocking buffer at room temperature for 1 hour, and subjected to antibody incubation and development procedures according to the antibody manufacturer's instructions (Cell Signaling Technology).
(§4) Half-Maximal Degradation Concentration value (the drug concentration required for degrading proteins by 50%, abbreviated as DC50) reads method: comparing the grayscale values of Western blot bands from drug-treated samples with those from blank DMSO-treated controls, and identifying the drug concentration range at which the grayscale value is half that of the DMSO-treated control bands.
(§5) DC50 values can be calculated using ImageJ software to measure grayscale values of Western blot bands from drug-treated samples. The concentration-response curve is fitted to estimate the drug concentration corresponding to half the grayscale value.
(§6) Target protein remaining (%) refers to the percentage of target protein remaining in cells after treatment with protein degrader compounds.
(§7) Calculation method for target protein remaining (%): Use ImageJ software to measure grayscale values of Western blot bands from drug (protein degrader)-treated samples. The grayscale value of drug-treated bands is divided by that of internal control protein bands, and the resulting quotient is normalized to obtain the relative percentage of remaining target protein after protein degrader treatment. Target protein degradation rate(%) = 1−target protein remaining(%). [formula]

MCF-7 = test: Tumor cell proliferation inhibition (CellTiter-Meiluncell Luminescent Cell Viability Assay); format: cell-based; settings: Homo sapiens, 96 hours, Table I-2, ALK inhibitors
Method in brief: (§8)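 Following overnight seeding, tumor cells received serial compound dilutions to final levels that included 10 nM and 500 nM. Viability was assessed by luminescence at the end of the specified exposure time. Cultures were kept at 37°C with 5% CO2.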

MM.1S = test: as above; format: cell-based; settings: Homo sapiens, MM1.S, MM.1S, 96 hours; for inhibition at 0.01 µM: 10 nM, read-out: Inhibition Rate at 10 nM (%); for inhibition at 0.5 µM: 500 nM, read-out: Inhibition Rate at 500 nM (%)
Method in brief: as §8

MV-4-11 = test: as above; format: cell-based; settings: Homo sapiens, 96 hours; for inhibition at 0.01 µM: MV4-11, 10 nM, read-out: Inhibition Rate at 10 nM (%); for inhibition at 0.5 µM: MV4-11, 500 nM, read-out: Inhibition Rate at 500 nM (%)
Method in brief: as §8

CDK9 = target: T3, CDK9 (Homo sapiens, UniProt P50750); test: Western blot, target protein degradation in MDA-MB-231 Cell; format: cell-based; settings: substrate protein remaining %, treated at 500 nM and 50 nM, 24 hours
T3 construct: endogenous in cells; host or cells: MDA-MB-231
T3 sequence (P50750 whole entry): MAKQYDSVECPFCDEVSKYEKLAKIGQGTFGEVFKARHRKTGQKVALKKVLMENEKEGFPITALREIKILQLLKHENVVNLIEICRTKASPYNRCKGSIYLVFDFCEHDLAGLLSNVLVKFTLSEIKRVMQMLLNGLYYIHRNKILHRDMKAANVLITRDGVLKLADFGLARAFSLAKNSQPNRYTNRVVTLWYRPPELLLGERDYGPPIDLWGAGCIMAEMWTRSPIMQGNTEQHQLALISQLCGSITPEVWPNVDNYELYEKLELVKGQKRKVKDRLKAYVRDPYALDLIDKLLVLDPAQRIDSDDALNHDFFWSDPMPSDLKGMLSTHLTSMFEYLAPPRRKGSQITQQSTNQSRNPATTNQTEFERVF
Protocol: as §1, §2, §3, §4, §5, §6, §7

H1975 = test: Tumor cell proliferation inhibition (CellTiter-Meiluncell Luminescent Cell Viability Assay); format: cell-based; settings: Homo sapiens, 96 hours, Table I-3, EGFR inhibitors; for inhibition at 0.01 µM: NCI-H1975, 10 nM, read-out: Inhibition Rate at 10 nM (%); for inhibition at 0.5 µM: NCI-H1975, 500 nM, read-out: Inhibition Rate at 500 nM (%)
Method in brief: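 Cells were grown at 37°C under 5% CO2, seeded into 96-well plates, and dosed with compound on the next day. After a set treatment period, viability was read by luminescence with the CellTiter-Meiluncell reagent and IC50 values were derived. Final compound concentrations included 500 nM and 10 nM.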

RPMI-8226 = test: as above; format: cell-based; settings: Homo sapiens, 96 hours, Table I-3, EGFR inhibitors
Method in brief: as §8

SW620 = test: as above; format: cell-based; settings: Homo sapiens, 96 hours, Table I-3, EGFR inhibitors
Method in brief: as §8

Structure (SMILES)	inhibition at 0.5 µM [1] [%]	inhibition at 2 µM [1] [%]	Degradation of substrate protein ALK (ALK)	inhibition at 0.01 µM (MM.1S; Table I-2, ALK inhibitors) [%]	inhibition at 0.5 µM (MM.1S; Table I-2, ALK inhibitors) [%]	inhibition at 0.01 µM (H1975) [%]	inhibition at 0.5 µM (H1975) [%]	other results
Cc1cc(Nc2ncc(Cl)c(Nc3ccccc3S(=O)(=O)C(C)C)n2)c(OC(C)C)cc1C1CCN(Cc2ccc3c(c2)C(=S)N(C2CCC(=O)NC2=O)C3)CC1 (stereo not shown) [GT-08678, 3-(6-((4-(4-((5-chloro-4-((2-(isopropylsulfonyl)pheny 1)amino)pyrimidin-2-yl)amino)-5-isopropoxy-2-methylphenyl)piperidin-1-yl)methyl)-1-thioxoisoindolin-2-yl)piperidine-2,6-dione]	40 to 53	60 to 80	A (0% ≤ substrate protein remaining % ≤ 80%)	0 to 10	50 to 60			inhibition at 0.01 µM (MCF-7; MCF7, 10 nM, read-out: Inhibition Rate at 10 nM (%)): -20 to -10%; inhibition at 0.5 µM (MCF-7; MCF7, 500 nM, read-out: Inhibition Rate at 500 nM (%)): 40 to 50%
O=C1CCC(N2Cc3cc(CN4C[C@H]5C[C@@H]4CN5c4ccc(-c5cc(F)c6c(c5)C(=O)N(C(C(=O)Nc5nccs5)c5ncn7c5CCC7)C6)cc4)ccc3C2=S)C(=O)N1 (stereo partly drawn) [GT-08757, 2-(6,7-dihydro-5H-pyrrolo[1,2-c]imidazol-1-yl)-2-(6-(4-((1R,4R)-5-((2-(2,6-dioxopiperidin-3-yl)-1-thioxoisoindolin-5-yl)methyl)-2,5-diazabicyclo[2.2.1]heptan-2-yl)phenyl)-4-fluoro-1-oxoisoindolin-2-yl)-N-(thiazol-2-vl)acetamide]	53 to 60	60 to 80				20 to 30	50 to 60	
C#Cc1cccc(Nc2ncnc3cc(OCCOC)c(OCCOC)cc23)c1 [erlotinib, Erlotinib, reference compound]						0 to 5	0 to 5	inhibition at 0.01 µM (MV-4-11; Table I-3, EGFR inhibitors): 0 to 5%; inhibition at 0.5 µM (MV-4-11; Table I-3, EGFR inhibitors): 10 to 20%; inhibition at 0.01 µM (RPMI-8226; 10 nM, read-out: Inhibition Rate at 10 nM (%)): 20 to 30%; inhibition at 0.5 µM (RPMI-8226; 500 nM, read-out: Inhibition Rate at 500 nM (%)): 20 to 30%; inhibition at 0.01 µM (SW620; SW-620, 10 nM, read-out: Inhibition Rate at 10 nM (%)): 10 to 20%; inhibition at 0.5 µM (SW620; SW-620, 500 nM, read-out: Inhibition Rate at 500 nM (%)): 10 to 20%

Further lines, with some results ahead:

inhibition at 0.5 µM [1] [%]	inhibition at 2 µM [1] [%]	Structure (SMILES)	Degradation of substrate protein ALK (ALK)	inhibition at 0.01 µM (MM.1S; Table I-2, ALK inhibitors) [%]	inhibition at 0.5 µM (MM.1S; Table I-2, ALK inhibitors) [%]	inhibition at 0.01 µM (H1975) [%]	inhibition at 0.5 µM (H1975) [%]	other results
60 to 80	80 to 100	COc1cc(N2CCC(N(C)Cc3ccc4c(c3)C(=S)N(C3CCC(=O)NC3=O)C4)CC2)ccc1Nc1ncc(Cl)c(Nc2ccccc2P(C)(C)=O)n1 (stereo not shown) [GT-08680, 3-(6-(((1-(4-((5-chloro-4-((2-(dimethylphosphoryl)phenyl)amino)pyrimidin-2-yl)amino)-3-methoxyphenyl)piperidin-4-yl)(methyl)amino)methyl)-1-thioxoisoindolin-2-yl)piperidine-2,6-dione]	A (0% ≤ substrate protein remaining % ≤ 80%)	0 to 10	50 to 60			inhibition at 0.01 µM (MV-4-11; Table I-2, ALK inhibitors): 10 to 20%; inhibition at 0.5 µM (MV-4-11; Table I-2, ALK inhibitors): 60 to 70%
53 to 60	80 to 100	Cn1ncc(-c2nc(NC3CCN(Cc4cccc5c4CN(C4CCC(=O)NC4=O)C5=S)CC3)ncc2Cl)c1CC1CC1 (stereo not shown) [GT-08686, 3-(4-((4-((5-chloro-4-(5-(cyclopropylmethyl)-1-methyl-1H-pyrazol-4-yl)pyrimidin-2-yl)amino)piperidin-1-yl)methyl)-1-thioxoisoindolin-2-yl)piperidine-2,6-dione]						Degradation of substrate protein CDK9 (CDK9): A (0% ≤ substrate protein remaining % ≤ 80%); inhibition at 0.01 µM (MV-4-11; Table I-7, CDK9 inhibitors): 50 to 60%; inhibition at 0.5 µM (MV-4-11; Table I-7, CDK9 inhibitors): 80 to 100%; inhibition at 0.01 µM (MM.1S; Table I-7, CDK9 inhibitors): 0 to 5%; inhibition at 0.5 µM (MM.1S; Table I-7, CDK9 inhibitors): 80 to 100%
30 to 40	53 to 60	O=C1CCC(N2Cc3c(CN4C[C@H]5C[C@@H]4CN5c4ccc(-c5cc(F)c6c(c5)C(=O)N(C(C(=O)Nc5nccs5)c5ncn7c5CCC7)C6)cc4)cccc3C2=S)C(=O)N1 (stereo partly drawn) [GT-08760, 2-(6,7-dihydro-5H-pyrrolo[1,2-c]imidazol-1-yl)-2-(6-(4-((1R,4R)-5-((2-(2,6-dioxopiperidin-3-yl)-1-thioxoisoindolin-4-yl)methyl)-2,5-diazabicyclo[2.2.1]heptan-2-yl)phenyl)-4-fluoro-1-oxoisoindolin-2-yl)-N-(thiazol-2-yl)acetamide]				20 to 30	50 to 60	
